The values below come from publication PMC6424957 (Scientific Reports, 2019).

Data set [1] in a line: ABTS radical cation scavenging assay. To be noted: for ABTS·+ scavenging activity, TEAC value: Trolox equivalent antioxidant capacity, ratio of slopes compound/Trolox; for ABTS·+ scavenging activity, TEAC value / IC50: 1 h incubation; for IC50: concentration reducing ABTS·+ by 50%; for radical-scavenging activity, ABTS method: result in words. On the procedure: This assay is based on the production of a stable dark green ABTS cation-radical (ABTS^·+) by incubating ABTS ([2,2′-azino-bis(3-eth-ylbenzothiazoline-6-sulfonic acid diammonium salt)) with potassium persulfate. […] The ABTS radical-scavenging activity of the compounds was measured according to an established method[66] with some modifications, at 30 °С in the dark; incubation time was 1 hour. […] The results were expressed as TEAC values (Trolox equivalent antioxidant capacity) calculated by dividing the slope of ABTS^·+ concentration decrease versus the antioxidant concentration by the slope of the Trolox plot.
Radical scavenging activity of the compounds was assessed using an ABTS radical decolorization assay[66] with some minor modifications. ABTS (2,2′-azino-bis-(3-ethylbenzothiazoline-6-sulfonic acid) diammonium salt) was purchased from TCI (Tokyo, Japan); potassium persulfate (di-potassium peroxodisulfate) and Trolox (6-hydroxy-2,5,7,8-tetramethychroman-2-carboxylic acid were obtained from Sigma-Aldrich Chemical Co. (St. Louis, MO, USA). Ethanol was HPLC grade. Aqueous solutions were prepared using deionized water.
Trolox was used as the antioxidant standard. A 5 mM solution of Trolox was prepared in DMSO for use as stock. Fresh working solutions of known concentrations (1–100 μM) were prepared on the day of experiments and used for calibration and as positive controls for ABTS radical cation (ABTS^•+) scavenging activity. ABTS was dissolved in deionized water to a 7 mM concentration. […] Fresh working ABTS^•+ solution was prepared for each assay.
The radical scavenging capacity of the compounds was analyzed by mixing 10 μl of compound with 240 μl of ABTS^•+ working solution. […] Ethanol blanks were run in each assay. Values were obtained from three replicates of each sample and three independent experiments.
Antioxidant capacity as a Trolox equivalent (TEAC values) was determined as the ratio between the slopes obtained from the linear correlation for concentrations of test compounds and Trolox with absorbance of ABTS radical.

Data set [2] relates to isolated rat liver mitochondria. Kind of data set: Mitochondrial membrane potential (safranine O). The format is biochemical. To be noted: 30 µM, 10-min incubation, mean ± SD, n ≥ 5; for ΔΨm, % depolarization, CI (g/m): energized with Complex-I substrates (glutamate, malate); for ΔΨm, % depolarization, CII (s/r): energized with succinate in the presence of rotenone. From the text:
Mitochondria and the mitochondrial permeability transition (MPT) are key players in the cascades of events leading to cell death. Consequently, inhibition of the MPT is a promising target in neuroprotection. On the other hand, depolarization of mitochondria is widely used a predictor of toxicity[72] but depolarization connected with uncoupling of the respiratory chain or stimulation of electron flux can also be cytoprotective. Due to its redox-cycling capability, MB can restore the electron flux in the respiratory chain in the presence of inhibitors of complex-I[74]. […] Consequently, we measured the effect of our conjugates of MB and γ-carbolines on mitochondrial membrane potential under two conditions. (C1) Mitochondria were energized with NADH-dependent substrates of Complex-I (glutamate and malate). (CII) Mitochondria were energized with an FADH2-dependent substrate of Complex II (succinate) in the presence of rotenone, a Complex-I inhibitor. Conjugates (30 μM) were incubated with mitochondria and the effect on mitochondrial membrane potential was measured. For comparison, mitochondria were incubated with MB, MBH2, and Dimebon (30 μM each).
Safranine O (10 µM) was used as a membrane potential probe. Fluorescence intensity at 580 nm (excitation at 520 nm) was measured with Victor3 multi-well fluorescence plate reader (Perkin Elmer, Germany). Mitochondrial protein concentration was 0.2 mg/ml. The medium for measurements contained 75 mM sucrose, 225 mM mannitol, 10 mM K-HEPES, 0.02 mM EGTA, and 1 mM KH2PO4 (pH 7.4, 25 °C). After a 5-min incubation, 5 mM glutamate/malate or 5 mM succinate and 0.5 μM rotenone were added to produce the mitochondrial potential. Then the compounds (30 μM) or the same volume of vehicle (DMSO) were injected into the mitochondrial suspension. After 15–20 min, CaCl2 (12.5 μM) was added to each probe to induce the depolarization of mitochondria and after 5 min 0.5 µM carbonyl cyanide m-chlorophenyl hydrazone (CCCP) was added for maximum depolarization of mitochondria. The level of depolarization (ΔΨm) was calculated from the fluorescence value after a 10-min incubation with 30 µM of compounds (or vehicle) normalized between fluorescence measurements after substrate and CCCP additions.

Data set [3] addresses T1, AChE from human erythrocytes (Homo sapiens, UniProt P22303).
T1 construct: Acetylcholinesterase (AChE, EC 3.1.1.7, from human erythrocyte); purchased Sigma-Aldrich (Germany); host or cells: human erythrocytes
In kind it is biochemical. Particulars: for αKi (non-competitive component), AChE / Ki: Lineweaver-Burk analysis; for Ki: read-out: Ki (competitive component), AChE. On the procedure: (§1) To elucidate the inhibition mechanisms for the active compounds, the AChE and BChE residual activity was determined in the presence of 3 increasing concentrations of the test compounds and 6 decreasing concentrations of the substrates. The test compounds were preincubated with the enzymes at 25 °C for 5 min, followed by the addition of the substrates. Parallel controls were made for an assay of the rate of hydrolysis of the same concentrations of substrates in the solutions with no inhibitor. […] Each experiment was performed three times.

For the next data set, the target named is T2, BChE from equine serum (Equus caballus, UniProt P81908).
T2 construct: butyrylcholinesterase (BChE, EC 3.1.1.8, from equine serum); purchased Sigma-Aldrich (Germany); host or cells: equine serum
T2 sequence (P81908 whole entry): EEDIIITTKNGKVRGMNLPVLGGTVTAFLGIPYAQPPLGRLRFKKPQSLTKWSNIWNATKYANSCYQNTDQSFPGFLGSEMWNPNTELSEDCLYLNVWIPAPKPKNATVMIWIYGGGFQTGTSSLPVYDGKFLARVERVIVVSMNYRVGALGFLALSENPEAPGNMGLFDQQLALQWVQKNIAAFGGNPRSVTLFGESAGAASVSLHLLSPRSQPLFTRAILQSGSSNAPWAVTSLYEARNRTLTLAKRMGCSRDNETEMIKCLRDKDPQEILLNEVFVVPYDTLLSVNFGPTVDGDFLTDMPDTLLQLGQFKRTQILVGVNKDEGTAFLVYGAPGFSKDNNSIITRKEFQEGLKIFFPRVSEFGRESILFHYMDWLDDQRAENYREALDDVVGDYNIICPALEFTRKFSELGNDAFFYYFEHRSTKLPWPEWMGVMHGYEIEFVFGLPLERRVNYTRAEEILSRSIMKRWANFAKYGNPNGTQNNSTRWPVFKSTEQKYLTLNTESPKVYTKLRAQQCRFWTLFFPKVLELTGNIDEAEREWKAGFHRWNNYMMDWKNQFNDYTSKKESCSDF
The format is biochemical. Particulars: for αKi (non-competitive component), BChE / Ki: Lineweaver-Burk analysis; for Ki: read-out: Ki (competitive component), BChE. The protocol: as §1

The subject of data set [4] is isolated rat liver mitochondria. Description: Restoration of mitochondrial membrane potential after rotenone-induced depolarization. The format is biochemical. To be noted: 3 μM compound. From the text: Therefore, we examined the ability of MB, MBH2, and compound 3 to restore membrane potential after depolarization with rotenone. […] It is important to note that successive additions of calcium and the uncoupler carbonyl cyanide m-chlorophenyl hydrazone (CCCP) each caused mitochondrial depolarization (Fig. 6). […]

The conditions of data set [5]: cited from earlier work.
Where [6] appears, read: Lineweaver-Burk plots, changes in Vmax and Km.

As a reminder, the IC50 is the concentration needed to halve the response being measured. Read a high IC50 as weaker potency. By Ki is commonly meant the equilibrium dissociation constant of an inhibitor or competing ligand from its target.

T1 sequence (P22303 32-617 isoform P22303-2 limits assumed): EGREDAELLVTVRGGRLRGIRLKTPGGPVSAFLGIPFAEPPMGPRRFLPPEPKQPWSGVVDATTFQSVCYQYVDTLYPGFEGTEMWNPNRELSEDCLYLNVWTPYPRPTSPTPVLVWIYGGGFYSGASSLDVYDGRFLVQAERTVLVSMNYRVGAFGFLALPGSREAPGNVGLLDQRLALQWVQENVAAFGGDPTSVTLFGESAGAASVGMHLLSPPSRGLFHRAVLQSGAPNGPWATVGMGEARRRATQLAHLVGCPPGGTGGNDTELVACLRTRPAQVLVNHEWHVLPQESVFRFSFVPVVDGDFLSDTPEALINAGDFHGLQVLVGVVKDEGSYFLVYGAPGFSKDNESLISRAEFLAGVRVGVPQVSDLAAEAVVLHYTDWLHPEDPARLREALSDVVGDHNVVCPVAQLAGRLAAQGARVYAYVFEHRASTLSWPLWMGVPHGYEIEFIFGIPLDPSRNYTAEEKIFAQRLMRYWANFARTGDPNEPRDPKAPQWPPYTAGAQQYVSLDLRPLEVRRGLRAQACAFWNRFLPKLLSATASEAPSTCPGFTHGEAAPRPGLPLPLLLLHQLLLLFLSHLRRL

Take `CN1CCc2c(c3ccccc3n2CCC(=O)N2c3ccc(N(C)C)cc3Sc3cc(N(C)C)ccc32)C1.Cl.Cl.Cl` [Compound 1]: in data set [1], the “ABTS·+ scavenging activity, TEAC value” was 0.63 ± 0.045 and the half-maximal inhibitory concentration (IC50) came to 35.4 ± 3.4 µM. In addition, in data set [2], the “ΔΨm, % depolarization, CI (g/m)” value is listed as 20 ± 1% and the “ΔΨm, % depolarization, CII (s/r)” value stood at 64 ± 2%.
Taken in the same sequence, the figures for `CCN1CCc2c(c3ccccc3n2CCC(=O)N2c3ccc(N(C)C)cc3Sc3cc(N(C)C)ccc32)C1.Cl.Cl.Cl` [Compound 2] were 1.03 ± 0.07, 19.1 ± 1.52 µM, 7 ± 1% and 48 ± 1%.
Consider `Cc1ccc2c(c1)c1c(n2CCC(=O)N2c3ccc(N(C)C)cc3Sc3cc(N(C)C)ccc32)CCN(C)C1` [Compound 3], for which, in data set [3], the “αKi (non-competitive component), AChE” value is listed as 3.35 ± 0.31 µM and the Ki turned out to be 880 ± 70 nM. Further, the “type of AChE inhibition” value in data set [3] (setting [6]) is given as “mixed-type inhibition”. At BChE from equine serum, the “αKi (non-competitive component), BChE” value worked out at 2.09 ± 0.19 µM and the Ki amounted to 370 ± 30 nM. At BChE from equine serum (setting [6]), the “type of BChE inhibition” value is “mixed-type inhibition”. In data set [1], the “ABTS·+ scavenging activity, TEAC value” is recorded as 0.79 ± 0.06 and the IC50 stood at 27.5 ± 1.64 µM. For the same compound, in data set [2], the “ΔΨm, % depolarization, CI (g/m)” value is recorded as 29 ± 11% and the “ΔΨm, % depolarization, CII (s/r)” value amounted to 67 ± 2%. For the same compound, in data set [4], the “recovery of ΔΨm after rotenone-induced depolarization” value (“recovery of ΔΨm” below) is listed as “recovered”.
Take `CCN1CCc2c(c3cc(C)ccc3n2CCC(=O)N2c3ccc(N(C)C)cc3Sc3cc(N(C)C)ccc32)C1.Cl.Cl.Cl` [Compound 4]: in data set [1], the “ABTS·+ scavenging activity, TEAC value” is 0.99 ± 0.08 and half-maximal inhibition (IC50) was put at 20.5 ± 2.05 µM. Besides, in data set [2], the “ΔΨm, % depolarization, CI (g/m)” value is listed as 9 ± 1% and the “ΔΨm, % depolarization, CII (s/r)” value is given as 43 ± 3%.
For `CCCN1CCc2c(c3cc(C)ccc3n2CCC(=O)N2c3ccc(N(C)C)cc3Sc3cc(N(C)C)ccc32)C1.Cl.Cl.Cl` [Compound 5], in that order: 0.99 ± 0.05, 19.6 ± 1.82 µM, 17 ± 2% and 69 ± 2%.
In the case of `Cc1ccc2c(c1)c1c(n2CCC(=O)N2c3ccc(N(C)C)cc3Sc3cc(N(C)C)ccc32)CCN(C(C)C)C1.Cl.Cl.Cl` [Compound 6], in data set [3], the “αKi (non-competitive component), AChE” value is 13.4 ± 1.2 µM and the inhibitory constant (Ki) is 3520 ± 290 nM. At BChE from equine serum, the “αKi (non-competitive component), BChE” value is given as 2.64 ± 0.24 µM and the Ki stood at 530 ± 40 nM. Moreover, in data set [1], the “ABTS·+ scavenging activity, TEAC value” is 0.96 ± 0.07 and the IC50 was determined as 21.2 ± 1.75 µM. Besides, in data set [2], the “ΔΨm, % depolarization, CI (g/m)” value is 8 ± 2% and the “ΔΨm, % depolarization, CII (s/r)” value is 44 ± 5%.
`CN1CCc2c(c3cc(F)ccc3n2CCC(=O)N2c3ccc(N(C)C)cc3Sc3cc(N(C)C)ccc32)C1` [Compound 7]: in data set [1], the “ABTS·+ scavenging activity, TEAC value” is reported as 1.08 ± 0.08 and the IC50 amounted to 19 ± 2.28 µM. For the same compound, in data set [2], the “ΔΨm, % depolarization, CI (g/m)” value is on record as 13 ± 3% and the “ΔΨm, % depolarization, CII (s/r)” value came to 67 ± 1%.
Take `CN(C)c1ccc2nc3ccc(=[N+](C)C)cc-3sc2c1` [MB, methylene blue, reference compound]: in data set [1], the “radical-scavenging activity, ABTS method” value is recorded as “not detectable”. In addition, in data set [2], the “ΔΨm, % depolarization, CI (g/m)” value came out at 14 ± 7% and the “ΔΨm, % depolarization, CII (s/r)” value is 40 ± 9%. Besides, the “recovery of ΔΨm” value in data set [4] is “recovered”. In addition, the redox potential in data set [5] is recorded as 11 mV.
`CN(C)c1ccc2c(c1)Sc1cc(N(C)C)ccc1N2` [MBH2, leucomethylene blue, reference compound]: in data set [1], the “radical-scavenging activity, ABTS method” value is reported as “not detectable”. For the same compound, in data set [2], the “ΔΨm, % depolarization, CII (s/r)” value was found to be 18 ± 1%. Also, the “recovery of ΔΨm” value in data set [4] is reported as “recovered”.
